According to patent US7893266B2, “Detection of cancer cells in vitro using sigma-2 receptor ligands as radiotracers” (Washington University, priority 2003, dated 2011):
Like-named read-outs stand apart in the source and are kept apart here.

Columns and labels:
[1] = tested on: EMT-6 mammary tumors; assay: Biodistribution in EMT-6 BALB/C mice; format: in vivo
Description: (§1) As used herein, the term “tumor:background ratio” (i.e., tumor:fat ratio, tumor:muscle ratio, tumor:lung ratio, tumor:blood ratio) refers to the % injected dose/g tissue of the radiotracer in the tumor divided by the % injected dose/g […] in the background tissue (i.e., fat, muscle, lung, blood).
(§2) B. Biodistribution Studies of ^11C analogs in Tumor-Bearing Mice. Biodistribution studies were conducted in mature Balb/c mice that were implanted with EMT-6 mammary tumors identified herein as EMT-6 BALB/C mice to create laboratory tumor-bearing mice. The mice were implanted in the scapular region seven days prior to the study. Animals were injected with 100-150 μCi of the ^11C-labeled radiotracer and the animals were sacrificed at 5, 30, and 60 min post-i.v. injection of the radiotracer.
(§3) A series of biodistribution studies in tumor-bearing mice were also conducted with [^76Br]8, [^76Br]6, [^125I]8i, and [^125I]6i.

[2] = Biodistribution in EMT-6 BALB/C mice; format: in vivo; conditions: Balb/c, mouse, intravenous
Description: as §1, §2, §3

[3] = tested on: EMT-6 mammary tumors; assay: Biodistribution study of [76Br]6 (Example 4), low and high dose groups; format: in vivo, Balb/C mice
Excerpt: This compound was studied in mature Balb/C mice that were implanted with EMT-6 mammary tumors. The mice were implanted in the nape of the neck 7 days prior to the study. The biodistribution study consisted of three groups: 1 hr low dose (≈6 μCi), 4 hr low dose and a 4 hr high dose (≈150 μCi). The % ID/g at 1 hr for tumor, brain, fat, blood and liver were 4.0±0.4, 0.25±0.02, 1.1±0.4, 2.1±0.3 and 5.4±0.4, respectively. At 4 hr for the low dose animals the values decreased to 1.2±0.2, 0.15±0.02, 0.3±0.2, 0.82±0.08 and 1.3±0.2, respectively. […] The activity injected into the high dose animals was enough to perform microPET® imaging studies. […] This initial study has shown that this σ2 receptor compound has a high uptake into EMT-6 mammary tumors and can be imaged non-invasively. (MicroPET® is a dedicated PET scanner designed for high resolution imaging of small laboratory animals. It is available from Concorde Microsystems, Inc. 10427 Cogdill Rd, Suite 500 Knoxville, Tenn. 37932 USA.)

[4] = tested on: EMT-6 mammary tumors; assay: Comparison with [18F]FLT in tumor-bearing mice; format: in vivo; conditions: 1 hr for [11C]10; 2 hr post-i.v. injection for [76Br]6 and [125I]6i
[5] = biological target: T1, σ2 receptors in the breast tumors (Mus musculus, UniProt Q8VD00); assay: In vivo blocking studies with YUN 143 in tumor-bearing mice; conditions: blocking agent YUN 143 (1 mg/kg, i.v.); time point of highest % I.D./gram tumor
T1 construct: mature Balb/c mice that were implanted with EMT-6 mammary tumors; from tissue; host or cells: EMT-6 mammary tumours in Balb/c mice, in vivo
T1 sequence (Q8VD00 1-176): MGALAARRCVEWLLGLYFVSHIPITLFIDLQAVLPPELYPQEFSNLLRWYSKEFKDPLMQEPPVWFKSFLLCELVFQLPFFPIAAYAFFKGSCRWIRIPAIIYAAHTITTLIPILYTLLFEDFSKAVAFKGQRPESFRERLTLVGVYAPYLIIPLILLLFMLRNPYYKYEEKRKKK
Excerpt: The blocking agent was YUN 143, which has a high affinity for σ1 and σ2 receptors. Animals were sacrificed at the time point displaying the highest % I.D./gram tumor.
The inventors then conducted blocking studies in order to confirm that the radiotracer labeled σ2 receptors in the breast tumors. […] We have previously reported that [^18F]YUN 143 labels σ1 and σ2 receptors in breast tumor xenografts (Mach et al., 2001).

[6] = kidney, read-out: % ID per gram kidney
[7] = liver, read-out: % ID per gram liver
[8] = spleen, read-out: % ID per gram spleen

ratio Tumor:blood ([1]; 5 min): 2.25 ± 0.28 | ratio Tumor:fat ([1]; 5 min): 1.30 ± 0.24 | ratio Tumor:heart ([1]; 5 min): 0.65 ± 0.07 | ratio Tumor:lung ([1]; 5 min): 0.19 ± 0.02 | ratio Tumor:muscle ([1]; 5 min): 1.32 ± 0.16 | ratio Tumor:blood ([1]; 30 min): 2.41 ± 0.08 | ratio Tumor:fat ([1]; 30 min): 2.35 ± 0.34 | ratio Tumor:heart ([1]; 30 min): 2.48 ± 0.17 | ratio Tumor:lung ([1]; 30 min): 0.93 ± 0.09 | ratio Tumor:muscle ([1]; 30 min): 3.70 ± 1.06 | ratio Tumor:blood ([1]; 1 hour): 2.53 ± 0.54 | ratio Tumor:fat ([1]; 1 hour): 5.09 ± 1.39 | ratio Tumor:heart ([1]; 1 hour): 3.72 ± 0.72 | ratio Tumor:lung ([1]; 1 hour): 1.64 ± 0.30 | ratio Tumor:muscle ([1]; 1 hour): 6.76 ± 2.09 | ratio Tumor:blood ([1]; 2 hour): 3.79 ± 0.99 | ratio Tumor:fat ([1]; 2 hour): 7.97 ± 1.95 | ratio Tumor:heart ([1]; 2 hour): 5.77 ± 0.60 | ratio Tumor:lung ([1]; 2 hour): 2.30 ± 0.13 | ratio Tumor:muscle ([1]; 2 hour): 8.81 ± 0.91 | ratio Tumor:blood ([1]; 4 hour): 3.17 ± 0.58 | ratio Tumor:fat ([1]; 4 hour): 20.69 ± 10.77 | ratio Tumor:heart ([1]; 4 hour): 6.24 ± 1.28 | ratio Tumor:lung ([1]; 4 hour): 2.36 ± 0.46 | ratio Tumor:muscle ([1]; 4 hour): 9.48 ± 2.14 | % ID per gram blood ([1]; 5 min): 2.12 ± 0.20 % ID per gram | % ID per gram blood ([1]; 30 min): 2.20 ± 0.24 % ID per gram | % ID per gram blood ([1]; 1 hour): 1.60 ± 0.22 % ID per gram | % ID per gram blood ([1]; 2 hour): 0.46 ± 0.07 % ID per gram | % ID per gram blood ([1]; 4 hour): 0.21 ± 0.03 % ID per gram | % ID per gram bone ([1]; 5 min): 3.10 ± 0.67 % ID per gram | % ID per gram bone ([1]; 30 min): 2.76 ± 0.58 % ID per gram | % ID per gram bone ([1]; 1 hour): 1.38 ± 0.09 % ID per gram | % ID per gram bone ([1]; 2 hour): 0.56 ± 0.20 % ID per gram | % ID per gram bone ([1]; 4 hour): 0.12 ± 0.03 % ID per gram | % ID per gram brain ([1]; 5 min): 1.60 ± 0.15 % ID per gram | % ID per gram brain ([1]; 30 min): 0.41 ± 0.06 % ID per gram | % ID per gram brain ([1]; 1 hour): 0.17 ± 0.02 % ID per gram | % ID per gram brain ([1]; 2 hour): 0.05 ± 0.00 % ID per gram | % ID per gram brain ([1]; 4 hour): 0.03 ± 0.00 % ID per gram | % ID per gram fat ([1]; 5 min): 3.78 ± 0.97 % ID per gram | % ID per gram fat ([1]; 30 min): 2.27 ± 0.16 % ID per gram | % ID per gram fat ([1]; 1 hour): 0.81 ± 0.16 % ID per gram | % ID per gram fat ([1]; 2 hour): 0.22 ± 0.05 % ID per gram | % ID per gram fat ([1]; 4 hour): 0.04 ± 0.02 % ID per gram | % ID per gram heart ([1]; 5 min): 7.31 ± 0.70 % ID per gram | % ID per gram heart ([1]; 30 min): 2.15 ± 0.30 % ID per gram | % ID per gram heart ([1]; 1 hour): 1.08 ± 0.07 % ID per gram | % ID per gram heart ([1]; 2 hour): 0.30 ± 0.03 % ID per gram | % ID per gram heart ([1]; 4 hour): 0.11 ± 0.02 % ID per gram | % ID per gram kidney ([1]; 5 min): 31.20 ± 2.92 % ID per gram | % ID per gram kidney ([1]; 30 min): 18.51 ± 2.66 % ID per gram | % ID per gram kidney ([1]; 1 hour): 10.81 ± 1.72 % ID per gram | % ID per gram liver ([1]; 5 min): 10.99 ± 0.29 % ID per gram | % ID per gram liver ([1]; 30 min): 8.85 ± 0.52 % ID per gram | % ID per gram liver ([1]; 1 hour): 4.58 ± 0.36 % ID per gram | % ID per gram lung ([1]; 5 min): 24.64 ± 2.74 % ID per gram | % ID per gram lung ([1]; 30 min): 5.81 ± 1.12 % ID per gram | % ID per gram lung ([1]; 1 hour): 2.45 ± 0.17 % ID per gram | % ID per gram lung ([1]; 2 hour): 0.74 ± 0.04 % ID per gram | % ID per gram muscle ([1]; 5 min): 3.62 ± 0.27 % ID per gram | % ID per gram muscle ([1]; 30 min): 1.54 ± 0.49 % ID per gram | % ID per gram muscle ([1]; 1 hour): 0.61 ± 0.11 % ID per gram | % ID per gram muscle ([1]; 2 hour): 0.20 ± 0.03 % ID per gram | % ID per gram muscle ([1]; 4 hour): 0.07 ± 0.01 % ID per gram | % ID per gram tumor ([1]; 5 min): 4.78 ± 0.78 % ID per gram | % ID per gram tumor ([1]; 30 min): 5.31 ± 0.62 % ID per gram | % ID per gram tumor ([1]; 1 hour): 3.98 ± 0.58 % ID per gram | % ID per gram tumor ([1]; 2 hour): 1.71 ± 0.17 % ID per gram | % ID per gram tumor ([1]; 4 hour): 0.68 ± 0.15 % ID per gram | tissue uptake at 2 h [2, 6]: 1.85 ± 0.54 %ID/g | tissue uptake at 4 h [2, 6]: 0.57 ± 0.12 %ID/g | tissue uptake at 2 h [2, 7]: 1.67 ± 0.1 %ID/g | tissue uptake at 4 h [2, 7]: 0.71 ± 0.08 %ID/g | tissue uptake at 4 h ([2]; lung, read-out: % ID per gram lung): 0.29 ± 0.03 %ID/g | tissue uptake at 5 min ([2]; spleen, 5 min, read-out: % ID per gram spleen): 12.5 ± 1.46 %ID/g | tissue uptake at 30 min ([2]; spleen, 30 min, read-out: % ID per gram spleen): 6.91 ± 1.22 %ID/g | tissue uptake at 1 h ([2]; spleen, 1 hour, read-out: % ID per gram spleen): 2.61 ± 0.62 %ID/g | tissue uptake at 2 h [2, 8]: 0.6 ± 0.03 %ID/g | tissue uptake at 4 h [2, 8]: 0.2 ± 0.03 %ID/g | % ID/g for the 4 hr high dose animals versus low dose ([3]; 4 hr, high dose (≈150 μCi)): not significantly different | % ID/g blood ([3]; 1 hr, low dose (≈6 μCi)): 2.1±0.3 % ID/g | % ID/g blood ([3]; 4 hr, low dose): 0.82±0.08 % ID/g | % ID/g brain ([3]; 1 hr, low dose (≈6 μCi)): 0.25±0.02 % ID/g | % ID/g brain ([3]; 4 hr, low dose): 0.15±0.02 % ID/g | % ID/g fat ([3]; 1 hr, low dose (≈6 μCi)): 1.1±0.4 % ID/g | % ID/g fat ([3]; 4 hr, low dose): 0.3±0.2 % ID/g | % ID/g liver ([3]; 1 hr, low dose (≈6 μCi)): 5.4±0.4 % ID/g | % ID/g liver ([3]; 4 hr, low dose): 1.3±0.2 % ID/g | % ID/g tumor ([3]; 1 hr, low dose (≈6 μCi)): 4.0±0.4 % ID/g | % ID/g tumor ([3]; 4 hr, low dose): 1.2±0.2 % ID/g
SMILES: COc1cc2c(cc1OC)CN(CCCCNC(=O)c1cc([76Br])cc(OC)c1OC)CC2 [[^76Br]6]
tumor:background ratios compared with [18F]FLT [4]: higher tumor:background ratios greater than that observed with [^18F]FLT | in vivo blocking study result [5]: consistent with the labeling of σ2 receptors in vivo
